Experimental data from patent US10905691B2, “Use of triazolo(4,5-d)pyrimidine derivatives for prevention and treatment of bacterial infection” (Universite de Liege, priority 2016, dated 2021).

Legend:
S. aureus ATCC 25904 [1] = test: MBC and MDK99.9 determination (CFU counting); format: cell-based, Staphylococcus aureus; settings: for MBC: Staphylococcus aureus, ATCC25904, cut-off 99.9% reduction in CFU
Experimental: (§1) Further experiments were conducted using different strains of S. aureus, as clinically relevant Gram-positive bacterial strains: ATCC 25904, ATCC 6538, methilcillin-resistant S. aureus (MRSA) ATCC BAA-1556, Glycopeptide intermediate-resistant (GISA) S. aureus Mu-50 (ATCC 700695) in order to determine the Minimal Inhibitory Concentration (MIC) which is the minimal concentration required to prevent bacterial growth; the Minimal Bactericidal Concentration (MBC) which determines the lowest concentration at which an antimicrobial agent kill a particular microorganism and a Minimum Duration for killing 99.9% bacteria (MDK99.9) which is a tolerance metric according to the EUCAST.
(§2) MBC and MDK99.9 determination: A single colony selected from the different strains of S. aureus is resuspended and cultured in the appropriate medium (TSB, or BHI) overnight (O/N) in aerobic conditions (37° C. with 220 rpm shaking), next day a 1:100 inoculum in the appropriate medium was incubated in aerobic conditions for 2 h. The culture is then challenged with triafluocyl at MIC concentration or higher concentrations. Bacterial growth was measured after different time intervals by counting the colony-forming units after plating appropriate culture dilutions on BHI agar plates. […] And the real time needed is defined as the MDK99.9. MBC for Triafluocyl against S. aureus ATCC 25904, ATCC 6538, methilcillin-resistant S. aureus (MRSA) ATCC BAA-1556, Glycopeptide intermediate-resistant (GISA), and S. aureus Mu-50 (ATCC 700695) were 20 μg/ml for each of them. MDK99.9 for Triafluocyl against S. aureus ATCC 25904, ATCC 6538, methilcillin-resistant S. aureus (MRSA) ATCC BAA-1556, Glycopeptide intermediate-resistant (GISA), and S. aureus Mu-50 (ATCC 700695) were 10, 6, 2, and 14 hours, respectively.
(§3) For MBC determination a 1:100 inoculum of an O/N culture (prepared like before) was incubated in aerobic conditions for 2 h in bacteria-specific medium. The culture was then challenged with Fluometacyl at the MIC concentration or higher. Bacterial growth was measured after different time intervals by counting the colony-forming units (CFU) after plating appropriate culture dilutions on bacteria-specific medium agar plates.

[2] = test system: methilcillin-resistant S. aureus (MRSA) ATCC BAA-1556; test: MBC and MDK99.9 determination (CFU counting); format: cell-based, Staphylococcus aureus; settings: for MBC: Staphylococcus aureus, cut-off 99.9% reduction in CFU
Experimental: as §1, §2, §3

[3] = test system: Glycopeptide intermediate-resistant (GISA) S. aureus Mu-50 (ATCC 700695); test: MBC and MDK99.9 determination (CFU counting); format: cell-based, Staphylococcus aureus; settings: for MBC: Staphylococcus aureus, ATCC700695, cut-off 99.9% reduction in CFU
Experimental: as §1, §2, §3

[4] = test system: E. faecalis vancomycin-resistant (VRE) ATCC BAA-2365; test: MBC and MDK99.9 determination (CFU counting); format: cell-based, Enterococcus faecalis; settings: for MBC: Enterococcus faecalis, cut-off 99.9% reduction in CFU
Experimental: as §1, with “E. faecalis,” for “S. aureus,”, “strains: E. faecalis vancomycin-resistant (VRE)” for “strains:”, “BAA-2365, and E. faecalis” for “25904,”, “29212” for “6538, methilcillin-resistant S. aureus (MRSA) ATCC BAA-1556, Glycopeptide intermediate-resistant (GISA) S. aureus Mu-50 (ATCC 700695)”
MBC and MDK99.9 determination: A single colony selected from the different strains of E. faecalis is resuspended and cultured in the appropriate medium (TSB, or BHI) overnight (O/N) in aerobic conditions (37° C. with 220 rpm shaking), next day a 1:100 inoculum in the appropriate medium was incubated in aerobic conditions for 2 h. The culture is then challenged with triafluocyl at MIC concentration or higher concentrations. Bacterial growth was measured after different time intervals by counting the colony-forming units after plating appropriate culture dilutions on BHI agar plates. […] And the real time needed is defined as the MDK99.9. MBC for Triafluocyl against E. faecalis vancomycin-resistant (VRE) ATCC BAA-2365 was 20 μg/ml. MDK99.9 for Triafluocyl against E. faecalis vancomycin-resistant (VRE) ATCC BAA-2365 was 24 hours.
as §3

S. aureus ATCC 25904 [5] = test: MIC determination (EUCAST, Mueller-Hinton broth); format: cell-based; settings: Staphylococcus aureus, ATCC25904
Experimental: as §1
(§4) MIC determination: A single colony selected from the different strains of S. aureus is resuspended and cultured in the appropriate medium overnight (O/N) in aerobic conditions (37° C. with 220 rpm shaking), next day a 1:100 inoculum in Mueller-Hinton broth (MHB) was incubated in aerobic conditions for 3 hr (OD=0.08-0.1) and an inoculum of 1:300 dilution, corresponding to 3×10^5 CFU/ml, was incubated in presence or absence of different concentrations of Triafluocyl in 1% DMSO. After O/N growth the OD of each culture was measured at 600 nm in a spectrophotometer (OD600). The MIC represents the concentration at which there is no visible growth of bacteria, i.e. ΔOD at 600 nm equal to zero (blank is the medium alone). MIC for Triafluocyl against S. aureus ATCC 25904, ATCC 6538, methilcillin-resistant S. aureus (MRSA) ATCC BAA-1556, Glycopeptide intermediate-resistant (GISA), and S. aureus Mu-50 (ATCC 700695) were 20, 20, 15, and 20 μg/ml, respectively.
(§5) The Minimal Inhibitory Concentration (MIC) and the Minimal Bactericidal Concentration (MBC) of Fluometacyl were determined on several gram-positive strains (Table 2) following EUCAST (European Committee on Antimicrobial susceptibility Testing) recommendations.
(§6) For MIC determination a single colony was resuspended and cultured in the appropriate bacteria-specific medium (TSB: Tryptic Soy Broth for S. aureus atcc 25904 and S. epidermidis and BHI: brain-heart infusion medium for all the other strains) overnight (O/N) in aerobic conditions (37° C. with 220 rpm shaking), next day a 1:100 inoculum was incubated in Mueller-Hinton broth (MHB) in aerobic conditions for 3 hr (OD600=0.08-0.1). A further inoculum, 1:300 dilution of the MHB culture, corresponding to 3×10^5 CFU/ml, was grown in presence or absence of different concentrations of Fluometacyl, 1% DMSO in MHB for 20 hr.

[6] = test system: methilcillin-resistant S. aureus (MRSA) ATCC BAA-1556; test: MIC determination (EUCAST, Mueller-Hinton broth); format: cell-based; settings: Staphylococcus aureus
Experimental: as §1, §4, §5, §6

[7] = test system: Glycopeptide intermediate-resistant (GISA) S. aureus Mu-50 (ATCC 700695); test: MIC determination (EUCAST, Mueller-Hinton broth); format: cell-based; settings: Staphylococcus aureus, ATCC700695
Experimental: as §1, §4, §5, §6

`CCCSc1nc(N[C@@H]2C[C@H]2c2ccc(F)c(F)c2)c2nnn([C@@H]3C[C@H](OCCO)[C@@H](O)[C@H]3O)c2n1` [Triafluocyl, (1S,2S,3R,5S)-3-[7-[(1R,2S)-2-(3,4-difluorophenyl)cyclopropylamino]-5-(propylthio)-3H-[1,2,3]-triazolo[4,5-d]pyrimidin-3-yl]-5-(2-hydroxyethoxy)-1,2-cyclopentanediol] was tested, and the “MDK 99.9 Time (h) needed to kill 99.9% of the started inoculum” value (S. aureus ATCC 25904 [1]) was 10 h, the MBC (S. aureus ATCC 25904 [1]) was 20 µg/mL and the “MDK 99.9 Time (h) needed to kill 99.9% of the started inoculum” value [2] was 2 h. The MBC [2] was 20 µg/mL, the “MDK 99.9 Time (h) needed to kill 99.9% of the started inoculum” value ([3]; S. aureus Mu50 GISA) was 14 h and the MBC ([3]; S. aureus Mu50 GISA) was 20 µg/mL. The “MDK 99.9 Time (h) needed to kill 99.9% of the started inoculum” value [4] was 24 h, the MBC [4] was 20 µg/mL and the MIC (S. aureus ATCC 25904 [5]) was 20 µg/mL. The MIC [6] was 15 µg/mL and the MIC ([7]; S. aureus Mu50 GISA) was 20 µg/mL.

Compound `CCCSc1nc(N[C@@H]2C[C@H]2c2ccc(F)c(F)c2)c2nnn([C@@H]3C[C@H](O)[C@@H](O)[C@H]3O)c2n1` [Fluometacyl, (1S,2R,3S,4R)-4-[7-[[(1R,2S)-2-(3,4-Difluorophenyl)cyclopropyl]amino]-5-(propylthio)-3H-1,2,3-triazolo[4,5-d]pyrimidin-3-yl]-1,2,3-cyclopentanetriol] has an MBC (S. aureus ATCC 25904 [1]) of 38 µM, an MBC [2] of 38 µM and an MBC ([3]; S. aureus MU50 GISA) of 38 µM. The MBC [4] was 38 µM, the MIC (S. aureus ATCC 25904 [5]) was 30 to 38 µM and the MIC [6] was 20 to 30 µM. It also gave an MIC ([7]; S. aureus MU50 GISA) of 30 to 38 µM.
